One experiment deals with T1, MDMX (Homo sapiens, UniProt O15151).
T1 sequence (O15151 1-125): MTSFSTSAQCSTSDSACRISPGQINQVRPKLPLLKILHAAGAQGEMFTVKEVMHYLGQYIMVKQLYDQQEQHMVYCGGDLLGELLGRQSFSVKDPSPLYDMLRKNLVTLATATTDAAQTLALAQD
As to the kind of experiment: Competitive fluorescence polarization assay for MDMX. Particulars: competitive FP assay; for IC50: read-out: IC50 (MDMX); for Ki: read-out: Ki (MDMX). The class given is binding.

Another experiment concerns the target MDM2 (Homo sapiens, UniProt Q00987). Description: Competitive fluorescence polarization assay for MDM2. The class given is binding. Particulars: competitive FP assay, MDM2; for IC50: read-out: IC50 (MDM2); for Ki: read-out: Ki (MDM2).

Where a SMILES comes first, the peptide text is derived from it. Bridges are numbered along the chain shown (N, C = ends). [ ]: non-standard residue; d: D form. Trp(6-Cl) = N[C@@H](Cc1c[nH]c2cc(Cl)ccc12)C(=O)O; R8 = C=CCCCCCC[C@@](C)(N)C(=O)O; Cba = N[C@@H](CC1CCC1)C(=O)O; hLeu = CC(C)CC[C@H](N)C(=O)O; S5 = C=CCCC[C@](C)(N)C(=O)O; Nle = CCCC[C@H](N)C(=O)O

MDM2, sequence (Q00987 1-125): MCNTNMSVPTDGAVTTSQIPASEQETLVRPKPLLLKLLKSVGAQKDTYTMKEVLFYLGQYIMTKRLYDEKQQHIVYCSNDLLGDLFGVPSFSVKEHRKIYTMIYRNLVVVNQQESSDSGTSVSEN
Description for MDMX: Dilute MDMX (In-house, 40 kD) into FP buffer (High salt buffer-200 mM Nacl, 5 mM CHAPS, pH 7.5.) to make 300 nM (2×) working stock solution. • 2. […] Dilute 1 mM (in 100% DMSO) of FAM labeled linear peptide with DMSO to 100 μM (dilution 1:10). Then, dilute from 100 μM to 10 μM with water (dilution 1:10) and then dilute with FP buffer from 10 μM to 40 nM (dilution 1:250). This is the working solution which will be a 10 nM concentration in well (dilution 1:4). Keep the diluted FAM labeled peptide in the dark until use. • 4. […] Dilute 10 mM (in 100% DMSO) with DMSO to 5 mM (dilution 1:2). Then, dilute from 5 mM to 500 μM with H2O (dilution 1:10) and then dilute with FP buffer from 500 μM to 20 μM (dilution 1:25). […] Transfer 10 μl of serial diluted unlabeled peptides to each well which is filled with 20 μl of 300 nM of protein. • 7. Add 10 μl of 10 nM (4×) of FAM labeled peptide into each well and incubate for 3 hr to read.

As to `CCCC[C@H](NC(=O)[C@H](Cc1c[nH]c2ccccc12)NC(=O)[C@H](C)NC(=O)[C@]1(C)CCCC=CCCCCCC[C@@](C)(NC(=O)[C@H](Cc2ccccc2)NC(=O)[C@@H](NC(=O)[C@H](CCC(=O)O)NC(C)=O)[C@@H](C)O)C(=O)N[C@@H](CCC(=O)O)C(=O)N[C@@H](Cc2ccc(O)cc2)C(=O)N[C@@H](Cc2c[nH]c3ccccc23)C(=O)N[C@@H](C)C(=O)N[C@@H](CCC(N)=O)C(=O)N[C@@H](CC(C)C)C(=O)N1)C(=O)N[C@H](C)C(N)=O` [compound 278] (Ac-ETF[R8]EYWAQL[S5]AW[Nle][dA]-NH2; staple 4-11), the IC50 at MDMX and at MDM2 was 10 to 100 nM each time. The inhibitory constant (Ki) on MDMX and on MDM2 was less than 10 nM throughout.

As for `CCCC[C@H](NC(=O)[C@H](C)NC(=O)[C@H](C)NC(=O)[C@]1(C)CCCC=CCCCCCC[C@@](C)(NC(=O)[C@H](Cc2ccccc2)NC(=O)[C@@H](NC(=O)[C@H](CC(C)C)NC(C)=O)[C@@H](C)O)C(=O)N[C@@H](C)C(=O)N[C@@H](Cc2ccc(O)cc2)C(=O)N[C@@H](Cc2c[nH]c3ccccc23)C(=O)N[C@@H](CO)C(=O)N[C@@H](CCC(N)=O)C(=O)N[C@@H](CC(C)C)C(=O)N1)C(=O)N[C@@H](C)C(N)=O` [compound 306] (Ac-LTF[R8]AYWSQL[S5]AA[Nle]A-NH2; staple 4-11), the IC50 was 100 to 1000 nM on MDMX and less than 10 nM at MDM2. In addition, the figures for the Ki at MDMX and at MDM2 were 10 to 100 nM and less than 10 nM, respectively.

`CCCC[C@H](NC(=O)[C@H](C)NC(=O)[C@H](C)NC(=O)[C@]1(C)CCCC=CCCCCCC[C@@](C)(NC(=O)[C@H](Cc2ccccc2)NC(=O)[C@@H](NC(=O)[C@H](CC(C)C)NC(C)=O)[C@@H](C)O)C(=O)N[C@@H](CCC(=O)O)C(=O)N[C@@H](Cc2ccc(O)cc2)C(=O)N[C@@H](Cc2c[nH]c3ccccc23)C(=O)N[C@@H](C)C(=O)N[C@@H](CCC(N)=O)C(=O)N[C@@H](CCC(C)C)C(=O)N1)C(=O)N[C@@H](C)C(N)=O` [compound 318] (Ac-LTF[R8]EYWAQ[hLeu][S5]AA[Nle]A-NH2; staple 4-11): at MDMX, the concentration for half-maximal inhibition (IC50) lay within 100 to 1000 nM and the inhibition constant Ki is 10 to 100 nM. Besides, on MDM2, the IC50 is 10 to 100 nM and the Ki was 10 to 100 nM.

On to `CCCC[C@H](NC(=O)[C@H](C)NC(=O)[C@H](C)NC(=O)[C@]1(C)CCCC=CCCCCCC[C@@](C)(NC(=O)[C@H](Cc2ccccc2)NC(=O)[C@@H](NC(=O)[C@H](C)NC(=O)[C@H](C)NC(C)=O)[C@@H](C)O)C(=O)N[C@@H](C)C(=O)N[C@@H](Cc2ccc(O)cc2)C(=O)N[C@@H](Cc2c[nH]c3ccccc23)C(=O)N[C@@H](C)C(=O)N[C@@H](CCC(N)=O)C(=O)N[C@@H](CC(C)C)C(=O)N1)C(=O)N[C@@H](C)C(N)=O` [compound 319] (Ac-AATF[R8]AYWAQL[S5]AA[Nle]A-NH2; staple 5-12), for which, on MDMX, the half-maximal inhibitory concentration (IC50) was 100 to 1000 nM and the Ki lay in the range of 100 to 1000 nM. At MDM2, the IC50 lay in the range of 10 to 100 nM and the Ki was 10 to 100 nM.

As to `CCCC[C@H](NC(=O)[C@H](C)NC(=O)[C@H](C)NC(=O)[C@]1(C)CCCC=CCCCCCC[C@@](C)(NC(=O)[C@H](Cc2ccccc2)NC(=O)[C@@H](NC(=O)[C@H](CC(C)C)NC(C)=O)[C@@H](C)O)C(=O)N[C@@H](C)C(=O)N[C@@H](Cc2ccc(O)cc2)C(=O)N[C@@H](Cc2c[nH]c3ccccc23)C(=O)N[C@@H](C)C(=O)N[C@@H](CCC(N)=O)C(=O)N[C@@H](CC(C)C)C(=O)N1)C(=O)N[C@@H](C)C(=O)N[C@@H](C)C(N)=O` [compound 320], on MDMX, the half-maximal inhibitory concentration (IC50) was in the range of 100 to 1000 nM and the inhibitory constant (Ki) lay in the range of 100 to 1000 nM. Besides, at MDM2, the concentration for half-maximal inhibition (IC50) is 10 to 100 nM and the Ki lay within 10 to 100 nM.

On to `CCCC[C@H](NC(=O)[C@H](C)NC(=O)[C@H](C)NC(=O)[C@]1(C)CCCC=CCCCCCC[C@@](C)(NC(=O)[C@H](Cc2ccccc2)NC(=O)[C@@H](NC(=O)[C@H](CC(C)C)NC(=O)[C@H](C)NC(C)=O)[C@@H](C)O)C(=O)N[C@@H](C)C(=O)N[C@@H](Cc2ccc(O)cc2)C(=O)N[C@@H](Cc2c[nH]c3ccccc23)C(=O)N[C@@H](C)C(=O)N[C@@H](CCC(N)=O)C(=O)N[C@@H](CC(C)C)C(=O)N1)C(=O)N[C@@H](C)C(=O)N[C@@H](C)C(N)=O` [compound 321], for which, at MDMX, the IC50 fell in the range of 100 to 1000 nM and the Ki fell in the range of 10 to 100 nM. Moreover, at MDM2, the 50% inhibitory concentration (IC50) was in the range of 10 to 100 nM and the Ki was less than 10 nM.

Take `CCCC[C@H](NC(=O)[C@H](C)NC(=O)[C@H](C)NC(=O)[C@]1(C)CCCC=CCCCCCC[C@@](C)(NC(=O)[C@H](Cc2ccccc2)NC(=O)[C@@H](NC(=O)[C@H](CC(C)C)NC(C)=O)[C@@H](C)O)C(=O)N[C@@H](C)C(=O)N[C@@H](Cc2ccc(O)cc2)C(=O)N[C@@H](Cc2c[nH]c3ccccc23)C(=O)N[C@@H](C)C(=O)N[C@@H](CCC(N)=O)C(=O)N[C@@H](CC2CCC2)C(=O)N1)C(=O)N[C@@H](C)C(=O)N[C@@H](C)C(N)=O` [compound 322] (Ac-LTF[R8]AYWAQ[Cba][S5]AA[Nle]AA-NH2; staple 4-11): on MDMX, the IC50 was in the range of 100 to 1000 nM and the Ki is 100 to 1000 nM. Besides, at MDM2, the IC50 lay in the range of 10 to 100 nM and the inhibitory constant (Ki) was in the range of 10 to 100 nM.

As for `CCCC[C@H](NC(=O)[C@H](C)NC(=O)[C@H](C)NC(=O)[C@]1(C)CCCC=CCCCCCC[C@@](C)(NC(=O)[C@H](Cc2ccccc2)NC(=O)[C@@H](NC(=O)[C@H](CC(C)C)NC(C)=O)[C@@H](C)O)C(=O)N[C@@H](C)C(=O)N[C@@H](Cc2ccc(O)cc2)C(=O)N[C@@H](Cc2c[nH]c3ccccc23)C(=O)N[C@@H](C)C(=O)N[C@@H](CCC(N)=O)C(=O)N[C@@H](CCC(C)C)C(=O)N1)C(=O)N[C@@H](C)C(=O)N[C@@H](C)C(N)=O` [compound 323], the results for the IC50 at MDMX and at MDM2 were more than 1000 nM and 10 to 100 nM, respectively. For the same molecule, the Ki was in the range of 100 to 1000 nM at MDMX and 10 to 100 nM at MDM2.

As to `CC(=O)N[C@@H](C)C(=O)N[C@@H](CC(C)C)C(=O)N[C@H](C(=O)N[C@@H](Cc1ccccc1)C(=O)N[C@]1(C)CCCCCCC=CCCC[C@@](C)(C(=O)N[C@@H](CO)C(=O)N[C@@H](C)C(=O)N[C@@H](C)C(=O)N[C@@H](C)C(N)=O)NC(=O)[C@H](CC2CCC2)NC(=O)[C@H](CCC(N)=O)NC(=O)[C@H](C)NC(=O)[C@H](Cc2c[nH]c3ccccc23)NC(=O)[C@H](Cc2ccc(O)cc2)NC(=O)[C@H](CCC(=O)O)NC1=O)[C@@H](C)O` [compound 329], the IC50 on MDMX and at MDM2 was 10 to 100 nM in each case. For the same molecule, the results for the inhibition constant Ki on MDMX and at MDM2 were 10 to 100 nM and less than 10 nM, respectively.

Turning to `CC(=O)N[C@@H](Cc1ccccc1)C(=O)N[C@]1(C)CCCCCCC=CCCC[C@@](C)(C(=O)N[C@@H](C)C(=O)N[C@@H](C)C(=O)N[C@@H](C)C(=O)N[C@@H](C)C(=O)N[C@@H](C)C(=O)N[C@@H](C)C(=O)N[C@H](C)C(N)=O)NC(=O)[C@H](CC(C)C)NC(=O)[C@H](C)NC(=O)[C@H](CCC(=O)O)NC(=O)[C@H](Cc2c[nH]c3cc(Cl)ccc23)NC(=O)[C@H](Cc2ccc(O)cc2)NC(=O)[C@H](C)NC1=O` [compound 339] (Ac-F[R8]AY[Trp(6-Cl)]EAL[S5]AAAAAA[dA]-NH2; staple 2-9), on MDMX, the 50% inhibitory concentration (IC50) lay in the range of 100 to 1000 nM and the inhibitory constant (Ki) lay in the range of 10 to 100 nM. Besides, at MDM2, the half-maximal inhibitory concentration (IC50) was less than 10 nM and the inhibitory constant (Ki) is less than 10 nM.

With `CC(=O)N[C@@H](CCCNC(=N)N)C(=O)N[C@H](C(=O)N[C@@H](Cc1ccccc1)C(=O)N[C@]1(C)CCCCCCC=CCCC[C@@](C)(C(=O)N[C@@H](CO)C(=O)N[C@@H](C)C(=O)N[C@@H](C)C(N)=O)NC(=O)[C@H](CC2CCC2)NC(=O)[C@H](CCC(N)=O)NC(=O)[C@H](C)NC(=O)[C@H](Cc2c[nH]c3ccccc23)NC(=O)[C@H](Cc2ccc(O)cc2)NC(=O)[C@H](CCC(=O)O)NC1=O)[C@@H](C)O` [compound 360] (Ac-RTF[R8]EYWAQ[Cba][S5]SAA-NH2; staple 4-11), at MDMX, the IC50 is less than 10 nM and the inhibition constant Ki is less than 10 nM. In addition, at MDM2, the IC50 was less than 10 nM and the inhibition constant Ki was less than 10 nM.

For the molecule `CC(=O)N[C@@H](CC(C)C)C(=O)N[C@H](C(=O)N[C@@H](Cc1ccccc1)C(=O)N[C@]1(C)CCCCCCC=CCCC[C@@](C)(C(=O)N[C@@H](CO)C(=O)N[C@@H](C)C(=O)N[C@@H](C)C(N)=O)NC(=O)[C@H](CC2CCC2)NC(=O)[C@H](CCCNC(=N)N)NC(=O)[C@H](C)NC(=O)[C@H](Cc2c[nH]c3ccccc23)NC(=O)[C@H](Cc2ccc(O)cc2)NC(=O)[C@H](CCC(=O)O)NC1=O)[C@@H](C)O` [compound 363] (Ac-LTF[R8]EYWAR[Cba][S5]SAA-NH2; staple 4-11), on MDMX, the IC50 fell in the range of 10 to 100 nM and the Ki was less than 10 nM. For the same molecule, on MDM2, the half-inhibitory concentration (IC50) is 10 to 100 nM and the inhibition constant (Ki) is less than 10 nM.

`CC(=O)N[C@@H](CC(C)C)C(=O)N[C@H](C(=O)N[C@@H](Cc1ccccc1)C(=O)N[C@]1(C)CCCCCCC=CCCC[C@@](C)(C(=O)N[C@@H](CCCNC(=N)N)C(=O)N[C@@H](C)C(=O)N[C@@H](C)C(N)=O)NC(=O)[C@H](CC2CCC2)NC(=O)[C@H](CCC(N)=O)NC(=O)[C@H](C)NC(=O)[C@H](Cc2c[nH]c3ccccc23)NC(=O)[C@H](Cc2ccc(O)cc2)NC(=O)[C@H](CCC(=O)O)NC1=O)[C@@H](C)O` [compound 364] (Ac-LTF[R8]EYWAQ[Cba][S5]RAA-NH2; staple 4-11): the IC50 on MDMX and on MDM2 was 10 to 100 nM throughout. In addition, the Ki at MDMX and on MDM2 was less than 10 nM in each case.

Regarding `CC(=O)N[C@@H](CC(C)C)C(=O)N[C@H](C(=O)N[C@@H](Cc1ccccc1)C(=O)N[C@]1(C)CCCCCCC=CCCC[C@@](C)(C(=O)N[C@@H](CO)C(=O)N[C@@H](CCCNC(=N)N)C(=O)N[C@@H](C)C(N)=O)NC(=O)[C@H](CC2CCC2)NC(=O)[C@H](CCC(N)=O)NC(=O)[C@H](C)NC(=O)[C@H](Cc2c[nH]c3ccccc23)NC(=O)[C@H](Cc2ccc(O)cc2)NC(=O)[C@H](CCC(=O)O)NC1=O)[C@@H](C)O` [compound 365] (Ac-LTF[R8]EYWAQ[Cba][S5]SRA-NH2; staple 4-11), the IC50 on MDMX and on MDM2 was 10 to 100 nM in each case. Moreover, the Ki on MDMX and at MDM2 was less than 10 nM in each case.

The record behind these values is patent US8927500B2, “Peptidomimetic macrocycles” (Aileron Therapeutics, Inc., priority 2012, dated 2015).
